Measured values from patent US20040203067A1, “Methods for cancer prognosis and screening antiproliferative agents” (Temple University - Of The Commonwealth System of Higher …, priority 1998, published 2004).

Columns and labels:
[1] = tested on: phospho-STAT-3; assay: Phospho-STAT-3 immunoassay (Western blot) in BT20 breast cancer cells; format: cell-based, human; settings: 25 μM
Method: Human breast carcinoma cell lines, BT20, 126, T47D, MCF-7, ZR75, BT474, 415, and 435 were maintained in Dulbecco's modified eagle medium (DMEM), supplemented with 10% fetal bovine serum (FBS) (complete medium) in a 37° C. incubator with 5% CO2. STAT-3 (C-20) antibody, which recognizes phosphorylated and non-phosphorylated STAT-3, was purchased from Santa Cruz Biotechnologies and utilized as a positive control. Phospho-STAT-3 antibody was purchased from New England Biolabs. Rabbit anti-mouse antibody (secondary antibody for anti-STAT-3 and antiphospho-STAT-3) were purchased from Amersham International.
BT-20 cells were seeded at a density of 2×10^6 cells per 100 mm diameter dish and allowed to grow for 24 hours. Fresh medium was added to each plate 2 hours before treatment with the compound. The compound was dissolved in DMSO to make 5 mM stock solution and added to the medium (10 ml) to obtain a final concentration of 25 μM. DMSO alone was added to the control cells to study the effect of vehicle. […]
Equal amounts total protein ([…]) were run in each lane of SDS-PAGE gel (10%) and transferred to IMMOBILON-P (Millipore, USA). […] The antibody was detected using the ECL Western blotting analysis kit (Amersham International) following the manufacturer's instructions.

[2] = tested on: BT20 cells; assay: Killing of BT20 cells determined by Trypan blue exclusion; format: cell-based, human; settings: 2.5 μM in DMSO, within 72 hours of treatment

O=S(=O)(/C=C/c1ccc(F)cc1)Cc1ccc(Cl)cc1 [FRI-20, E-4-fluorostyryl 4-chlorobenzyl sulfone]
phospho-STAT-3 staining after treatment ([1]; 48 hours at 37° C., phospho-STAT-3 antibody Western blot (FIG. 9)): complete loss of phospho-STAT-3
STAT-3 staining (STAT-3 expression) after treatment ([1]; 48 hours, STAT-3 antibody Western blot (FIG. 9)): stained positive for STAT-3
BT20 cells killed [2]: more than 95%
